Reference: US20220023269A1, “Methods Of Treating Diabetes In Severe Insulin-Resistant Diabetic Subjects” (Balticgruppen Bio AB, priority 2018, published 2022)

Legend:
[1] = tested on: AMPK in primary mouse WT and hIAPPtg islets; test: AMPK activation in primary mouse WT and hIAPPtg islets; format: cell-based; conditions: 2.5, 5, 10 μM, 2 hours
Experimental: All cell lines were lysed in 0.1 M Tris-HCl, pH 6.8, 2% SDS, 10 mM sodium fluoride (SIGMA #S7920), 10 mM β-glycerophosphate (SIGMA #G6376), and 1 mM sodium vanadate (SIGMA #72060) and supernatant collected after 1 minute at 14,000 rpm. Islets (human and mouse) were lysed in 0.1 M Tris-HCl, pH 6.8, 2% SDS, protease inhibitor (Roche #04 693 124 001) and phosphatase inhibitor (Roche #04 906 837 001). Right calf muscle, heart, iWAT, and interscapular BAT was crushed in a pestle using liquid nitrogen and homogenised in ice cold RIPA buffer (150 mM sodium chloride (SIGMA #S7653), 1.0% NP40 (USB), 0.5% sodium deoxycholate (SIGMA #D6750), 0.1% SDS, 50 mM Tris pH 8.0, 20 mM sodium pyrophosphate (SIGMA #71515), 10 mM sodium fluoride, 10 mM β-glycerolphosphate, 1 mM sodium vanadate and protease inhibitor cocktail (Roche #04693124001), 1 tablet/10 ml lysis buffer). The supernatant was collected after 2 min at 14,000 rpm. This procedure was repeated until all fat was eliminated and the supernatant was clear, at 4° C. Samples were analysed on 4-15% polyacrylamide gels. Values were normalised toward AMPKα, β-Actin, GAPDH or the respective non-phosphorylated counterpart.
Table 3 contains origin of cell lines, growth conditions and settings for activation of AMPK via the test material. […]

[2] = tested on: PP2C-mediated dephosphorylation of p-T172 of human recombinant AMPKα, -β, and -γ trimers; test: AMPK in vitro de-phosphorylation assay; format: biochemical; conditions: with 150 μM ADP
Experimental: (§1) AMPKα2/β1/γ1 trimer (Life Technologies #PV4674, Lot 1261361B) (1 ng/μl) was incubated with 10 μM test material, 20 μM test material or 150 μM ADP (Sigma #A2754) +/−1 mM ATP (Sigma #A1852-1VL) in buffer (40 mM Hepes, 0.5 mM DTT, 0.2 mg/ml Gelatin (Sigma #G7041) and 0.4% DMSO), +/−PP2Ca (0.25-0.75 ng/μl) (Abcam ab51205-100; Lot GR54133-5) and 5 mM MnCl2 (total volume 20 μl). AMPKα2/β1/γ1+/−ATP was preincubated with the test material and ADP for 2 minutes at 30° C. before addition of PP2C/MnCl2 to start the dephosphorylation reaction which continued for 10-15 minutes at 30° C. Reactions were terminated by the addition of 0.17% BSA, 13 mM EDTA, 1.3×XT Sample buffer and 0.67% β-Mercaptoethanol in PBS. Samples were placed on ice, 5 minutes, heated at 100° C. for 5 minutes and chilled before run on a western gel. All steps were performed in high quality low-protein-binding eppendorf tubes. In a separate experiment 10 μM test material, 20 μM test material, 150 μM ADP alone or the combination of 10 μM test material+150 μM ADP and 20 μM test material+150 μM ADP was incubated with 1 ng/μl of AMPKα2/β1/γ1 or AMPKα1/β1/γ1 (Life Technologies #PV4672) trimer in buffer (40 mM Hepes, 0.5 mM DTT, 0.2 mg/ml gelatin and 0.4% DMSO)+/−0.25-0.5 ng/μl PP2Ca and 5 mM MnCl2 or 5 mM MgCl2. AMPK was sequentially preincubated with the test material and ADP or the combination for 2 minutes at 30° C. before sequential addition of PP2C/MnCl2 or PP2C/MgCl2 to start the dephosphorylation reaction which continued for 5-15 minutes at 30° C. The reaction was thereafter terminated and analysed as above.

[3] = target: T1, PP2C-mediated dephosphorylation of p-T172 of human recombinant AMPKα, -β, and -γ trimers (Homo sapiens, UniProt P54619+P54646+Q9Y478); test: AMPK in vitro de-phosphorylation assay; format: biochemical
T1 construct: purchased Life Technologies (AMPK trimer); Abcam (PP2Ca) PV4674 (Lot 1261361B); ab51205-100 (Lot GR54133-5)
T1 sequence (P54646 whole entry): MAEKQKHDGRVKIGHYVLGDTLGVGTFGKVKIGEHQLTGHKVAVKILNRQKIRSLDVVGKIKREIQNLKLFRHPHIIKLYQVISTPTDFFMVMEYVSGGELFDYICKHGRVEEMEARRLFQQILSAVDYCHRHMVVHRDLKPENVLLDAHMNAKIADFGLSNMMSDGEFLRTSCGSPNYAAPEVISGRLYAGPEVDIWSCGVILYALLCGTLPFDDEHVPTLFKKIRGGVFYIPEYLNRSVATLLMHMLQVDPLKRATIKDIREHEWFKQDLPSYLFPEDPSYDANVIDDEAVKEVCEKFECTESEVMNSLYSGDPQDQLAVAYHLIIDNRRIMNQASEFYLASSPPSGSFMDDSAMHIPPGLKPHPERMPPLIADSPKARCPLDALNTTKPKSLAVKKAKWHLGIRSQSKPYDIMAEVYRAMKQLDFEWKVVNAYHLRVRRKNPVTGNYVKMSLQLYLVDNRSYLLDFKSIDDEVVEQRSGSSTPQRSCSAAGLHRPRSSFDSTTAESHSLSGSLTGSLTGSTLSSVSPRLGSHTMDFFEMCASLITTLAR
T1 sequence (Q9Y478 2-270): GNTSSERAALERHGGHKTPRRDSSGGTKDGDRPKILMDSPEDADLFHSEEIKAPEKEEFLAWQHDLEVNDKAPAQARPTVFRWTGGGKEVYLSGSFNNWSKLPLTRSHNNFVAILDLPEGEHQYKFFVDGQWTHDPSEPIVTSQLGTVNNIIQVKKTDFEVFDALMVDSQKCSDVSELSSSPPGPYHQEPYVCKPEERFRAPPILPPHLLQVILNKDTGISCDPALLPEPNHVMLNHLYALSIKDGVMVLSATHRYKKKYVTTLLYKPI
T1 sequence (P54619 whole entry): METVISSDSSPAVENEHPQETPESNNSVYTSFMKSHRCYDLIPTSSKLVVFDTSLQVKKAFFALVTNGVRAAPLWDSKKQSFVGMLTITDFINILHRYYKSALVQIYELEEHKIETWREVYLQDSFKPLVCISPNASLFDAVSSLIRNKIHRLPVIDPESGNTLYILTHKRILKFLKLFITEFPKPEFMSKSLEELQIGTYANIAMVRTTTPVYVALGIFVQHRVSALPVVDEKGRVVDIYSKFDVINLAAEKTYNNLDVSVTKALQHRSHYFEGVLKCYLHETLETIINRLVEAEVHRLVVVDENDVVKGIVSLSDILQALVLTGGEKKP
Experimental: as §1

CBA mice on HFD = test: Indirect calorimetry measurements; format: in vivo; conditions: 11 w
Experimental: VO2 and VCO2 rates were measured during 3 days by indirect calorimetry in TSE PhenoMaster Calorimetry metabolic cages (TSE Systems GmbH). The respiratory exchange ratio (RER) was calculated as a ratio of VCO2 produced/VO2 consumed. […] Energy expenditure (EE) was calculated as the product of the calorific value (CV) of oxygen [=3.815+(1.232×RER)] and the volume of O2 consumed, i.e. [EE=CV×VO2 (kcal/h)] and related to lean weight.

[4] = 0.8 mg/g in HFD, light and dark periods

`O=C(Nc1nc(=O)n(Cc2ccc(Cl)cc2)s1)c1ccc(Cl)cc1` [test material, 4-chloro-N-[2-[(4-chlorophenyl)methyl]-3-oxo-1,2,4-thiadiazol-5-yl]benzamide] was tested, and the pAMPKα [1] was “directly increased pAMPKα”, the “effect together with ADP on pAMPK dephosphorylation” value [2] was “acted in an additive manner with ADP” and the “PP2C-mediated dephosphorylation of p-T172 AMPK” value ([3]; absence of ATP) was “suppressed”. For the same compound, the “dephosphorylation of pAMPK” value ([3]; presence of excess ATP (1.0 mM)) was “protected pAMPK from dephosphorylation”, the “energy expenditure (EE)” value (CBA mice on HFD; [4]) was “significantly increased” and the “oxygen consumption (VO2)” value (CBA mice on HFD; [4]) was “significantly increased”. For the same compound, the “respiratory exchange ratio (RER)” value (CBA mice on HFD; 0.8 mg/g, day 2 light period, all 3 days dark period) was “significantly decreased”.
